Biological target: T1, ADRB3 (Homo sapiens, UniProt P13945)
T1 construct: purchased Promega (in-house HiBiT-GPCR construct library, NanoBRET)
Test: NanoBRET screen HiBiT-ADRB3 in HEK293
Type: binding
Procedure: Each tracer candidate was screened across the entire library of HiBiT-GPCR constructs using NanoBRET as the detection modality. As depicted in Figure 4A, the specificity of interactions was evaluated through decrease in BRET due to competitive displacement of a bound tracer by excess parental compound. Each tracer was analyzed for binding to each HiBiT-GPCR fusion in the absence and in the presence of competing parental compound. Briefly, HEK293 cells were transfected with HiBiT-GPCR constructs diluted into promoterless DNA to reduce expression and maximize translocation to the cell surface. Each tracer candidate was then screened at concentrations of 1 μM and 0.1 μM across cells expressing these fusions. Cells were treated for 1.5 h with tracer either alone or in the presence of 20 μM competing parental compound (i.e., control). BRET was measured upon addition of purified LgBiT and subsequent complementation with HiBiT genetically fused to a GPCR. The specificity of interactions was assessed through a decrease in BRET signal due to competitive displacement of the bound tracer. To further gauge the robustness of these interactions, the fold response over the control (i.e., BRETtracer/BRETcontrol) was calculated. We chose a 1.5-fold response, which translates to ≥7-fold signal over noise as the minimal threshold required to score an interaction as positive.
HiBiT-GPCR DNA constructs were diluted in 10 mM Tris pH 8 to a final concentration of 0.01 μg/μL, arrayed in 96-well plates and stored at −20 °C. For transfection, HEK293 cells were suspended in Opti-MEM (without phenol red) supplemented with 2% fetal bovine serum (Seradigm) and 100 units/mL penicillin–streptomycin (Gibco) at a final concentration of 220,000 cells/mL and dispensed into white 96-well plates at 90 μL/well. Subsequent transfections and screens were carried using an Agilent Bravo Automated Liquid Handling Platform. First, the 96-well HiBiT DNA arrays were diluted 25-fold in Opti-MEM (without serum or phenol red) to a final concentration of 0.0004 μg/μL and 20 μL of the diluted DNAs were transferred into new 96-well plates. Next, promoterless carrier DNA (1 μg/μL) was diluted 25-fold (0.04 μg/μL) and then dispensed into the diluted arrays at 20 μL/well. Following brief mixing, Viafect transfection reagent (Promega) diluted 16-fold into Opti-MEM was dispensed into the plates at 40 μL/well. After mixing by pipetting, plates were incubated for 10 min on the pipetting station deck. The DNA-transfection reagent complexes were then added to plates containing cells. To facilitate the screen, 10 μL of DNA-transfection reagent complexes were added in duplicates to the top 4 and bottom 4 rows, resulting in two identical 48-well arrays per plate. Plates with transfected cells were incubated for 18–20 h at 37 °C/5% CO2. A screen of each tracer across the entire library using two different concentrations requires duplicate plates of transfected cells. Depending on the number of tracers being screened, transfections can be scaled up using the same ratios. The next day, for each tracer, four 20× screening solutions in tracer dilution buffer (Promega) were prepared: two duplicates at final concentration of 20 μM and two duplicates at a final concentration of 2 μM. […] The four resulting solutions were diluted 4-fold in Opti-MEM without serum or phenol red to generate 5× solutions (5 µM and 0.5 µM tracer +/− 100 μM competing compound). To screen the library, a BioTek MultiFlo FX liquid dispenser was used to dispense 22.5 µL of tracer solution to the top 4 rows and 22.5 µL tracer + competing compound solution to the 4 bottom rows. Plates were briefly mixed on an orbital shaker and incubated for 1.5 h at room temperature. […] Plates were briefly mixed on an orbital shaker and incubated for 15 min to allow complementation.

T1 sequence (P13945 whole entry): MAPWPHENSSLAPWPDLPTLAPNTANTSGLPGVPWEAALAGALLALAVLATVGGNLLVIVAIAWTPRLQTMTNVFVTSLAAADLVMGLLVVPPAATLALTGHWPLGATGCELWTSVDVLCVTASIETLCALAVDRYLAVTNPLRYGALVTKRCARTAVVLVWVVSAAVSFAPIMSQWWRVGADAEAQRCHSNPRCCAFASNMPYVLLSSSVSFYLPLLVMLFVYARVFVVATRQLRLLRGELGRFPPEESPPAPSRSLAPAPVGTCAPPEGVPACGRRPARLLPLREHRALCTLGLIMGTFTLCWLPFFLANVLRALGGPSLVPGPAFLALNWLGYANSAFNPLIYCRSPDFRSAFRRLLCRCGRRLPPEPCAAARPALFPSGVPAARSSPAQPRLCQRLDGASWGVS

| SMILES | NanoBRET Fold Response (ADRB3, tracer 0.1μM) | NanoBRET Fold Response (ADRB3, tracer 1μM) | further results |
| --- | --- | --- | --- |
| CN1CCN(C2=Nc3cc(Cl)ccc3Nc3ccc(CNC(=O)CCOCCOCCOCCOCCNC(=O)CCc4ccc5n4[B-](F)(F)[N+]4=C(c6ccc[nH]6)C=CC4=C5)cc32)CC1 [Clozapine-b-2-NB590] |  |  | NanoBRET Fold Response (ADRB3, 0.1μM tracer): 1.01; NanoBRET Fold Response (ADRB3, 1μM tracer): 0.98 |
| CN(C)CCC=C1c2ccccc2CCc2ccc(C(=O)NCCNC(=O)CCOCCOCCOCCOCCNC(=O)CCc3ccc4n3[B-](F)(F)[N+]3=C(c5ccc[nH]5)C=CC3=C4)cc21 [Amitriptyline-b-2-NB590] |  |  | NanoBRET Fold Response (tracer at 0.1μM, listed as amitriptyline-b-2-NB590): 1.15; NanoBRET Fold Response (tracer at 1μM, listed as amitriptyline-b-2-NB590): 1.02 |
| CCOC(=O)c1cc(C#N)c(N2CCC(C(=O)NS(=O)(=O)Cc3ccccc3/C=C/C(=O)NCCNC(=O)CCc3ccc4n3[B-](F)(F)[N+]3=C(c5ccc[nH]5)C=CC3=C4)CC2)nc1C [AZD1283-1-NB590] |  |  | NanoBRET Fold Response (ADRB3, 0.1μM): 1.09; NanoBRET Fold Response (ADRB3, 1μM): 1.04 |
| CC(C)N(CC[C@H](c1ccccc1)c1cc(CCNC(=O)CCOCCOCCOCCOCCNC(=O)CCc2ccc3n2[B-](F)(F)[N+]2=C(c4ccc[nH]4)C=CC2=C3)ccc1O)C(C)C [Tolterodine-2-NB590] | 0.97 | 0.97 |  |
| CC(C)N(CC[C@H](c1ccccc1)c1cc(CCNC(=O)c2ccc(CNC(=O)CCc3ccc4n3[B-](F)(F)[N+]3=C(c5ccc[nH]5)C=CC3=C4)cc2)ccc1O)C(C)C [Tolterodine-BZ-NB590] | 0.93 | 0.99 |  |
| O=C(CCOCCOCCOCCOCCNC(=O)CCc1ccc2n1[B-](F)(F)[N+]1=C(c3ccc[nH]3)C=CC1=C2)NCCCN1CCN(C2=Nc3ccccc3Oc3ccc(Cl)cc32)CC1 [Loxapine-a-2-NB590] | 1.01 | 0.93 |  |
| CN1CCN(C2=Nc3cc(Cl)ccc3N(CC(=O)NCCOCCOCCOCCOCCNC(=O)CCc3ccc4n3[B-](F)(F)[N+]3=C(c5ccc[nH]5)C=CC3=C4)c3ccccc32)CC1 [Clozapine-c-2-NB590] |  |  | NanoBRET Fold Response (ADRB3, 0.1μM tracer): 0.98; NanoBRET Fold Response (ADRB3, 1μM tracer): 0.96 |
| CN(C)CCC=C1c2ccccc2CCc2ccc(C(=O)NCCNC(=O)CCOCCOCCOCCOCCNC(=O)CCc3ccc4n3[B-](F)(F)[N+]3=C(c5ccc[nH]5)C=CC3=C4)cc21 [Amitriptyline-a-2-NB590] |  |  | NanoBRET Fold Response (tracer at 0.1μM): 0.95; NanoBRET Fold Response (tracer at 1μM): 0.99 |
| Cc1nc2n(c(=O)c1CCN1CCC(c3noc4cc(F)ccc34)CC1)CCCC2OC(=O)NCCOCCOCCOCCOCCNC(=O)CCc1ccc2n1[B-](F)(F)[N+]1=C(c3ccc[nH]3)C=CC1=C2 (stereo not drawn) [Risperidone-2-NB590] | 0.98 | 1.01 |  |
| COc1ccc2[nH]c(-c3ccc(CNC(=O)CCOCCOCCOCCOCCNC(=O)CCc4ccc5n4[B-](F)(F)[N+]4=C(c6ccc[nH]6)C=CC4=C5)cc3)c(CCNC(C)=O)c2n1 [AzomelatoninICO9-2-NB590] |  |  | NanoBRET Fold Response (0.1μM tracer): 1.00; NanoBRET Fold Response (1μM tracer): 1.11 |
| COc1ccccc1N1CCN(CCCCN2C(=O)c3ccc(CNC(=O)CCOCCOCCOCCOCCNC(=O)CCc4ccc5n4[B-](F)(F)[N+]4=C(c6ccc[nH]6)C=CC4=C5)cc3C2=O)CC1 [NAN-190-2-NB590] | 0.98 |  |  |
| O=C(CCc1ccc2n1[B-](F)(F)[N+]1=C(c3ccc[nH]3)C=CC1=C2)NCCOCCOCCNC(=O)OCCOCCN1CCN(C2=Nc3ccccc3Sc3ccccc32)CC1 [Quetiapine-a-2-NB590] | 1.08 | 0.99 |  |
| O=C(CCOCCOCCOCCOCCNC(=O)CCc1ccc2n1[B-](F)(F)[N+]1=C(c3ccc[nH]3)C=CC1=C2)NCCCN1CCN(C2=Nc3cc(Cl)ccc3Nc3ccccc32)CC1 [Clozapine-a-2-NB590] |  |  | NanoBRET Fold Response (ADRB3, 0.1μM tracer): 0.97; NanoBRET Fold Response (ADRB3, 1μM tracer): 0.99 |
| N#CN=C(NCCCOc1cccc(CN2CCCCC2)c1)NCCNC(=O)CCOCCOCCOCCOCCNC(=O)CCc1ccc2n1[B-](F)(F)[N+]1=C(c3ccc[nH]3)C=CC1=C2 [Aminopotentidine-2-NB590] | 1.00 | 1.01 |  |
| O=C(CCc1ccc2n1[B-](F)(F)[N+]1=C(c3ccc[nH]3)C=CC1=C2)NCc1ccc(C(=O)NCCOCCOCCNCC(O)COc2cccc3ccccc23)cc1 (stereo not drawn) [Propranolol-3-NB590] |  |  | NanoBRET Fold Response (ADRB3, 0.1μM): 1.47; NanoBRET Fold Response (ADRB3, 1μM): 1.17 |
| O=C(CCc1ccc2n1[B-](F)(F)[N+]1=C(c3ccc[nH]3)C=CC1=C2)NCc1ccc(C(=O)NCCOCCC(=O)N[C@@H]2CC[C@@]3(O)[C@H]4Cc5ccc(O)c6c5[C@@]3(CCN4CC3CC3)[C@H]2O6)cc1 [Naltrexone-3-NB590] | 0.99 | 1.02 |  |
| COc1ccccc1N1CCN(CCCCN2C(=O)c3ccc(CNC(=O)CCOCCNC(=O)c4ccc(CNC(=O)CCc5ccc6n5[B-](F)(F)[N+]5=C(c7ccc[nH]7)C=CC5=C6)cc4)cc3C2=O)CC1 [NAN-190-3-NB590] | 1.03 | 0.92 |  |
| Cc1cc2c(s1)Nc1ccccc1N=C2N1CCN(CCCNC(=O)CCOCCOCCOCCOCCNC(=O)CCc2ccc3n2[B-](F)(F)[N+]2=C(c4ccc[nH]4)C=CC2=C3)CC1 [Olanzapine-a-2-NB590] | 1.05 | 0.89 |  |
| CCCn1c(=O)c2[nH]c(-c3ccc(OCC(=O)NCCNC(=O)CCOCCNC(=O)c4ccc(CNC(=O)CCc5ccc6n5[B-](F)(F)[N+]5=C(c7ccc[nH]7)C=CC5=C6)cc4)cc3)nc2n(CCC)c1=O [XAC-3-NB590] | 1.11 | 1.05 |  |
| N#CN/C(=N\CCNC(=O)c1ccc(N)cc1)NCCCOc1cccc(CN2CCCCC2)c1 [Aminopotentidine (unmodified)] |  |  | NanoBRET Fold Response (ADRB3, other tracers/Aminopotentidine (unmodified), 0.1μM): 1.02; NanoBRET Fold Response (ADRB3, other tracers/Aminopotentidine (unmodified), 1μM): 1.10 |
| CN(CCC=C1c2ccccc2CCc2ccccc21)C(=O)CCOCCOCCOCCOCCNC(=O)CCc1ccc2n1[B-](F)(F)[N+]1=C(c3ccc[nH]3)C=CC1=C2 [Amitriptyline-e-2-NB590] |  |  | NanoBRET Fold Response (tracer at 1μM): 1.01 |
| COc1ccc2c(n1)c(CCNC(C)=O)cn2CCNC(=O)CCc1ccc2n1[B-](F)(F)[N+]1=C(c3ccc[nH]3)C=CC1=C2 [Azamelatonin-1-NB590] |  |  | NanoBRET Fold Response (0.1μM tracer): 1.01; NanoBRET Fold Response (1μM tracer): 1.06 |
